# Results as given in US10844077B2, “Thiazolyl-containing compounds for treating proliferative diseases” (Dana-Farber Cancer Institute, Inc., priority 2014, dated 2020).
# Where two headings read alike, the source gives them in different places.
# Assays:
# Format in all cases: binding
# broad panel of kinases [1] = biological target: broad panel of kinases (Homo sapiens, UniProt Q92772); conditions: CDKL2; 1 μM
# broad panel of kinases [2] = biological target: broad panel of kinases (Homo sapiens, UniProt P51957); conditions: NEK4; 1 μM
# broad panel of kinases [3] = biological target: broad panel of kinases (Homo sapiens, UniProt P36888, K663Q); conditions: FLT3(K663Q); 1 μM
# broad panel of kinases [4] = biological target: broad panel of kinases (Homo sapiens, UniProt O14578); conditions: CIT; 1 μM
# broad panel of kinases [5] = biological target: broad panel of kinases (Homo sapiens, UniProt Q05397); conditions: FAK; 1 μM
# broad panel of kinases [6] = biological target: broad panel of kinases (Homo sapiens, UniProt Q8N5S9); conditions: CAMKK1; 1 μM
# broad panel of kinases [7] = biological target: broad panel of kinases (Homo sapiens, UniProt Q8NEV4); conditions: MYO3A; 1 μM
# broad panel of kinases [8] = biological target: broad panel of kinases (Homo sapiens, UniProt P00533, L861Q); conditions: EGFR(L861Q); 1 μM
# Chain of broad panel of kinases (Homo sapiens, UniProt P00533, L861Q) (P00533 25-1210 L861Q limits assumed): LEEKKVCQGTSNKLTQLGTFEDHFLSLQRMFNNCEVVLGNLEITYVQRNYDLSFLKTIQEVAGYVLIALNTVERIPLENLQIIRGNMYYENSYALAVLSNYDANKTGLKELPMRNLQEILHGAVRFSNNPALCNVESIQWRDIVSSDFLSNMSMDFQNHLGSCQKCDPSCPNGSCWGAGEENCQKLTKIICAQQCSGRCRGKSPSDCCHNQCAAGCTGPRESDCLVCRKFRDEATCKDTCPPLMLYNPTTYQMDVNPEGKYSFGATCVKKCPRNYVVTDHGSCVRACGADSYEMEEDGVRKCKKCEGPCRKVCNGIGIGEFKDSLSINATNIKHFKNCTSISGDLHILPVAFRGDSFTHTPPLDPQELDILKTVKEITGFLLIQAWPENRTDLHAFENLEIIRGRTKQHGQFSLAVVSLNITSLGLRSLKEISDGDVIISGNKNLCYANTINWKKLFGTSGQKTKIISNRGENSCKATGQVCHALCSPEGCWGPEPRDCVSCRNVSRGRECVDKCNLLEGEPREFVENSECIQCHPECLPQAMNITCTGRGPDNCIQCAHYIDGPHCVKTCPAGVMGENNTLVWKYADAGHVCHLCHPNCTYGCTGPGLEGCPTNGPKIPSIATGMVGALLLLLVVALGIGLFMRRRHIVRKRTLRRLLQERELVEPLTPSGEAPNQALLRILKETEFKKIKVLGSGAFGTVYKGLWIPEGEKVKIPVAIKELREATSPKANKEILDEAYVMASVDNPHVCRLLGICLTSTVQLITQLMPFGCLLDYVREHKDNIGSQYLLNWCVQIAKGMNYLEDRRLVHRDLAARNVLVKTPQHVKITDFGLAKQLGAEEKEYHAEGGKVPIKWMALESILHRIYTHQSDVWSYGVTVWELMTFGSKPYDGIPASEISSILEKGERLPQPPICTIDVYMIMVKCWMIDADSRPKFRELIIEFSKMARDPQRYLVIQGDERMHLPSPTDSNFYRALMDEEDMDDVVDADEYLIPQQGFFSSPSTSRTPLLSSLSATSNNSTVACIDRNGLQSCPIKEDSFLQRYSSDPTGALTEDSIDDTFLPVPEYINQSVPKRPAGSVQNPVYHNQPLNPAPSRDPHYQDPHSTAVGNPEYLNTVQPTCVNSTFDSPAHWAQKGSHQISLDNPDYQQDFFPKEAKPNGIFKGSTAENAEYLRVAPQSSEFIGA
# broad panel of kinases [9] = biological target: broad panel of kinases (Homo sapiens, UniProt Q16512); conditions: PKN1; 1 μM
# broad panel of kinases [10] = biological target: broad panel of kinases (Homo sapiens, UniProt Q06418); conditions: TYRO3; 1 μM
# broad panel of kinases [11] = biological target: broad panel of kinases (Homo sapiens, UniProt Q8TDX7); conditions: NEK7; 1 μM
# broad panel of kinases [12] = biological target: broad panel of kinases (Homo sapiens, UniProt Q14289); conditions: PYK2; 1 μM
# broad panel of kinases [13] = biological target: broad panel of kinases (Homo sapiens, UniProt Q9Y243); conditions: AKT3; 1 μM
# broad panel of kinases [14] = biological target: broad panel of kinases (Homo sapiens, UniProt O94768); conditions: DRAK2; 1 μM
# broad panel of kinases [15] = biological target: broad panel of kinases (Homo sapiens, UniProt Q99683); conditions: ASK1; 1 μM
# broad panel of kinases [16] = biological target: broad panel of kinases (Homo sapiens, UniProt Q14680); conditions: MELK; 1 μM
# broad panel of kinases [17] = biological target: broad panel of kinases (Homo sapiens, UniProt P20794); conditions: MAK; 1 μM
# broad panel of kinases [18] = biological target: broad panel of kinases (Homo sapiens, UniProt Q9BX84); conditions: TRPM6; 1 μM
# broad panel of kinases [19] = biological target: broad panel of kinases (Homo sapiens, UniProt P06241); conditions: FYN; 1 μM
# Chain of broad panel of kinases (Homo sapiens, UniProt P06241) (P06241 2-537 limits assumed): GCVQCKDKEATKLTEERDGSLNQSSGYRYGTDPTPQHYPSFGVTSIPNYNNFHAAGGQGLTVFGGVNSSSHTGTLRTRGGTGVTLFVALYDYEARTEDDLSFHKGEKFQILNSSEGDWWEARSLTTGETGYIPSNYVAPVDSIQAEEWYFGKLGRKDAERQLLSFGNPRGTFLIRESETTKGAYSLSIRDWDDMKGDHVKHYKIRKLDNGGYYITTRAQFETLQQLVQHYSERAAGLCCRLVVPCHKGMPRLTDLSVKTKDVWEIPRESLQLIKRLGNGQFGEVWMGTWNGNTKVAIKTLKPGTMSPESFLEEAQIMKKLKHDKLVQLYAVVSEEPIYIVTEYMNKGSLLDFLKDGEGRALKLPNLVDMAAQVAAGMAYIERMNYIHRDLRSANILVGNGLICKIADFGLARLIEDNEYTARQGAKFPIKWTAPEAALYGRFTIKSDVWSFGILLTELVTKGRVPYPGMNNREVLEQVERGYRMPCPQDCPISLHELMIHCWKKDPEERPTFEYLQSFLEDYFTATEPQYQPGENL
# broad panel of kinases [20] = biological target: broad panel of kinases (Homo sapiens, UniProt O15530); conditions: PDPK1; 1 μM
# broad panel of kinases [21] = biological target: broad panel of kinases (Homo sapiens, UniProt P54753); conditions: EPHB3; 1 μM
# Chain of broad panel of kinases (Homo sapiens, UniProt P54753) (P54753 34-998 limits assumed): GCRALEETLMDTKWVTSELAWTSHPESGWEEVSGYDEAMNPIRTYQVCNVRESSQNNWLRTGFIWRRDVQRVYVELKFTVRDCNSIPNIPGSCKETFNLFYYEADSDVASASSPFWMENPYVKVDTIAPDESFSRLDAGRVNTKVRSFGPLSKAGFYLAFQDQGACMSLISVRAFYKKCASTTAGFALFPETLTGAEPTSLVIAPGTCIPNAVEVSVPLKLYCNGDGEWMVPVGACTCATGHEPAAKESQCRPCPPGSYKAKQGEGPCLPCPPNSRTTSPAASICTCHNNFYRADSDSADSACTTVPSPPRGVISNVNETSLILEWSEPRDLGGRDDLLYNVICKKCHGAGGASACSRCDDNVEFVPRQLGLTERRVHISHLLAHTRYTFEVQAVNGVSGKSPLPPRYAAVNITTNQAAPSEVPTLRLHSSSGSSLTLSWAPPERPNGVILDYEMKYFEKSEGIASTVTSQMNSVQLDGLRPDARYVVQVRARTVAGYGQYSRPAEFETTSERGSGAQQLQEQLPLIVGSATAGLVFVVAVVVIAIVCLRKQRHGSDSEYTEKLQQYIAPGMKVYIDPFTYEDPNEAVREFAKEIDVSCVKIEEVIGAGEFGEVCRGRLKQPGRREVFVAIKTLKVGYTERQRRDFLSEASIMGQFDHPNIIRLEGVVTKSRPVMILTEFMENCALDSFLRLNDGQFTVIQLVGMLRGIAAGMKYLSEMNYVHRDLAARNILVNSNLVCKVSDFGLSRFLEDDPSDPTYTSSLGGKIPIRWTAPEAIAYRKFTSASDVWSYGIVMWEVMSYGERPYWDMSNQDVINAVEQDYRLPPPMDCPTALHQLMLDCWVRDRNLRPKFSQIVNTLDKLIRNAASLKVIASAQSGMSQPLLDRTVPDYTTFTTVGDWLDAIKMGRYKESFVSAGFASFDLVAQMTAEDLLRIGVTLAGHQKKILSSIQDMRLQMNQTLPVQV
# broad panel of kinases [22] = biological target: broad panel of kinases (Homo sapiens, UniProt Q9HC98); conditions: NEK6; 1 μM
# broad panel of kinases [23] = biological target: broad panel of kinases (Homo sapiens, UniProt Q12852); conditions: DLK; 1 μM
# broad panel of kinases [24] = biological target: broad panel of kinases (Homo sapiens, UniProt P00533, DEL746-750); conditions: EGFR(E746-A750del); 1 μM
# broad panel of kinases [25] = biological target: broad panel of kinases (Homo sapiens, UniProt Q9Y2K2); conditions: QSK; 1 μM
# broad panel of kinases [26] = biological target: broad panel of kinases (Homo sapiens, UniProt O95747); conditions: OSR1; 1 μM
# Chain of broad panel of kinases (Homo sapiens, UniProt O95747) (O95747 2-527 limits assumed): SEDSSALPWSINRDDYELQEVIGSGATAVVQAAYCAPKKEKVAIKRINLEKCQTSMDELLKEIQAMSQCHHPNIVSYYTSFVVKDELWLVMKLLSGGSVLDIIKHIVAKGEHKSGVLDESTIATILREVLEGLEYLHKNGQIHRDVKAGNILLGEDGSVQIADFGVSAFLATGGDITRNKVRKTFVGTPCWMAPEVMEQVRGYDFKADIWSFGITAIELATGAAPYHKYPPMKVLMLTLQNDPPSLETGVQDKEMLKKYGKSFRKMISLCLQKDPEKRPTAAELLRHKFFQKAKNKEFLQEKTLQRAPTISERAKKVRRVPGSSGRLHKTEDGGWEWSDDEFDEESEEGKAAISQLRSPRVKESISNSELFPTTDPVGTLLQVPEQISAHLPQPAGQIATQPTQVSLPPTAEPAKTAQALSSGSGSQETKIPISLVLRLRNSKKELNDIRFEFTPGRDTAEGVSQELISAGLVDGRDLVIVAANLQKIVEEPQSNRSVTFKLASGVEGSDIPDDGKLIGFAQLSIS
# broad panel of kinases [27] = biological target: broad panel of kinases (Homo sapiens, UniProt Q15418); conditions: 1 μM
# broad panel of kinases [28] = biological target: broad panel of kinases (Homo sapiens, UniProt P54762); conditions: EPHB1; 1 μM
# broad panel of kinases [29] = biological target: broad panel of kinases (Homo sapiens, UniProt Q9P289); conditions: MST4; 1 μM
# broad panel of kinases [30] = biological target: broad panel of kinases (Homo sapiens, UniProt Q9HAZ1); conditions: CLK4; 1 μM
# broad panel of kinases [31] = biological target: broad panel of kinases (Homo sapiens, UniProt P15056); conditions: BRAF; 1 μM
# Chain of broad panel of kinases (Homo sapiens, UniProt P15056) (P15056 2-766 limits assumed): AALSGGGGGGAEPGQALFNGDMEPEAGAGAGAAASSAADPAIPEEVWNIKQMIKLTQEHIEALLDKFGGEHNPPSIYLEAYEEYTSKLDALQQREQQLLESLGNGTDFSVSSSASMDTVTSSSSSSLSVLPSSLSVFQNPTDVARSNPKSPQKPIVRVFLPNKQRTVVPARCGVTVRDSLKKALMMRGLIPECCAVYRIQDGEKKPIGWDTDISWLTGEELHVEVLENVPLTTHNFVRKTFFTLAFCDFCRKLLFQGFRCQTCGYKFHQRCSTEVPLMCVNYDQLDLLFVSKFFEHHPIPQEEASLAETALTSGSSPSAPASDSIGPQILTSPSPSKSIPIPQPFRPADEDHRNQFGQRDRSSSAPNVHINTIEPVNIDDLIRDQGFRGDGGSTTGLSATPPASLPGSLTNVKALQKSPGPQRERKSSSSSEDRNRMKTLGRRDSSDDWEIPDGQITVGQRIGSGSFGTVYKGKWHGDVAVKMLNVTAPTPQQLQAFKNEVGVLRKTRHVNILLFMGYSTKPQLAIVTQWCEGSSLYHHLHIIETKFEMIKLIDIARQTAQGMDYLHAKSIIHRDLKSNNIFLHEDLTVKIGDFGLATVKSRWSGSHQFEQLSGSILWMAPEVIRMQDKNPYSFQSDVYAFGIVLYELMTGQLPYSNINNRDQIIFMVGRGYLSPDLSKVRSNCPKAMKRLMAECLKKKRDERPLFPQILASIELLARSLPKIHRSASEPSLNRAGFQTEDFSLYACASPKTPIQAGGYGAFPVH
# broad panel of kinases [32] = biological target: broad panel of kinases (Homo sapiens, UniProt P10721, V559D/V654A); conditions: KIT(V559D, V654A); 1 μM
# Chain of broad panel of kinases (Homo sapiens, UniProt P10721, V559D/V654A) (P10721 26-976 V559D/V654A limits assumed): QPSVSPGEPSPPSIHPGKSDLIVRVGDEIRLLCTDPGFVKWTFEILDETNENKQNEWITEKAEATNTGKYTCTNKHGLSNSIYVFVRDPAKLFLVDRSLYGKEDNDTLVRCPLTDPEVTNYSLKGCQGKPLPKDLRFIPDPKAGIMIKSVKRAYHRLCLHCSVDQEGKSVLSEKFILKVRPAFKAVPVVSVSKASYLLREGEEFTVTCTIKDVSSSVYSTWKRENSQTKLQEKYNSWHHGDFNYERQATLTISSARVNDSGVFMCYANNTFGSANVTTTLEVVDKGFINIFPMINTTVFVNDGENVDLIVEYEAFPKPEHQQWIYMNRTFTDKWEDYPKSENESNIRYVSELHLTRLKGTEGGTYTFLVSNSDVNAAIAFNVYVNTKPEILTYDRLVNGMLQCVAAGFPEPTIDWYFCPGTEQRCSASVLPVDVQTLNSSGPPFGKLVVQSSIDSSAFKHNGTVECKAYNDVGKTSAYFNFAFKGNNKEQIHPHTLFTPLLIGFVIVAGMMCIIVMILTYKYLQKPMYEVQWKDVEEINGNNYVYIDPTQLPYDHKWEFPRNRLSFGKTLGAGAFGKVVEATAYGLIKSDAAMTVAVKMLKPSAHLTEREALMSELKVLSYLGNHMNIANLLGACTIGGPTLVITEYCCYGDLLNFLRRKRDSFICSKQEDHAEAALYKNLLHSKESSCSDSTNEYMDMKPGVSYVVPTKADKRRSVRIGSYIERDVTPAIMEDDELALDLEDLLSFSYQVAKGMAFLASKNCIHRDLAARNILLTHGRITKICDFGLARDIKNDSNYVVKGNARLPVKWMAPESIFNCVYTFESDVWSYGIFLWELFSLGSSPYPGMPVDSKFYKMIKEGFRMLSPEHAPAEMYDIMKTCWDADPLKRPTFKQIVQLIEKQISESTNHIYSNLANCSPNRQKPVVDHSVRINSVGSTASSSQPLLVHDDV
# broad panel of kinases [33] = biological target: broad panel of kinases (Homo sapiens, UniProt Q9H422); conditions: HIPK3; 1 μM
# broad panel of kinases [34] = biological target: broad panel of kinases (Homo sapiens, UniProt P33981); conditions: TTK; 1 μM
# broad panel of kinases [35] = biological target: broad panel of kinases (Homo sapiens, UniProt Q8N4C8); conditions: MINK; 1 μM
# broad panel of kinases [36] = biological target: broad panel of kinases (Homo sapiens, UniProt Q96Q40)
# broad panel of kinases [37] = biological target: broad panel of kinases (Homo sapiens, UniProt Q13188); conditions: MST2; 1 μM
SMILES,percent of control binding remaining (lower = stronger binding) (broad panel of kinases [1]) [%],percent of control binding remaining (lower = stronger binding) (broad panel of kinases [2]) [%],percent of control binding remaining (lower = stronger binding) (broad panel of kinases [3]) [%],percent of control binding remaining (lower = stronger binding) (broad panel of kinases [4]) [%],percent of control binding remaining (lower = stronger binding) (broad panel of kinases [5]) [%],percent of control binding remaining (lower = stronger binding) (broad panel of kinases [6]) [%],percent of control binding remaining (lower = stronger binding) (broad panel of kinases [7]) [%],percent of control binding remaining (lower = stronger binding) (broad panel of kinases [8]) [%],percent of control binding remaining (lower = stronger binding) (broad panel of kinases [9]) [%],percent of control binding remaining (lower = stronger binding) (broad panel of kinases [10]) [%],percent of control binding remaining (lower = stronger binding) (broad panel of kinases [11]) [%],percent of control binding remaining (lower = stronger binding) (broad panel of kinases [12]) [%],percent of control binding remaining (lower = stronger binding) (broad panel of kinases [13]) [%],percent of control binding remaining (lower = stronger binding) (broad panel of kinases [14]) [%],percent of control binding remaining (lower = stronger binding) (broad panel of kinases [15]) [%],percent of control binding remaining (lower = stronger binding) (broad panel of kinases [16]) [%],percent of control binding remaining (lower = stronger binding) (broad panel of kinases [17]) [%],percent of control binding remaining (lower = stronger binding) (broad panel of kinases [18]) [%],percent of control binding remaining (lower = stronger binding) (broad panel of kinases [19]) [%],percent of control binding remaining (lower = stronger binding) (broad panel of kinases [20]) [%],other results
C=CC(=O)N1CC[C@H](Nc2nc(CN3CCOCC3)cc(Nc3ncc(C(=O)Nc4c(C)cccc4C)s3)n2)C1 [Example I-2],88,100,96,100,100,100,93,1.3,100,41,100,100,90,100,96,84,100,61,0.3,98,percent of control binding remaining (lower = stronger binding) (broad panel of kinases [21]): 0%; percent of control binding remaining (lower = stronger binding) (broad panel of kinases [22]): 100%; percent of control binding remaining (lower = stronger binding) (broad panel of kinases [23]): 98%; percent of control binding remaining (lower = stronger binding) (broad panel of kinases [24]): 3.7%; percent of control binding remaining (lower = stronger binding) (broad panel of kinases [25]): 36%; percent of control binding remaining (lower = stronger binding) (broad panel of kinases [26]): 81%; percent of control binding remaining (lower = stronger binding) (broad panel of kinases [27]; RSK1(Kin.Dom.1-N-terminal)): 73%; percent of control binding remaining (lower = stronger binding) (broad panel of kinases [27]; RSK1(Kin.Dom.2-C-terminal)): 100%; percent of control binding remaining (lower = stronger binding) (broad panel of kinases [28]): 0.35%; percent of control binding remaining (lower = stronger binding) (broad panel of kinases [29]): 100%; percent of control binding remaining (lower = stronger binding) (broad panel of kinases [30]): 94%; percent of control binding remaining (lower = stronger binding) (broad panel of kinases [31]): 4.4%; percent of control binding remaining (lower = stronger binding) (broad panel of kinases [32]): 7.2%; percent of control binding remaining (lower = stronger binding) (broad panel of kinases [33]): 95%; percent of control binding remaining (lower = stronger binding) (broad panel of kinases [34]): 100%; percent of control binding remaining (lower = stronger binding) (broad panel of kinases [35]): 71%; % change compared to control (broad panel of kinases [36]): 100%; percent of control binding remaining (lower = stronger binding) (broad panel of kinases [37]): 69%
C=CC(=O)N1CC[C@H](Nc2nccc(Nc3ncc(C(=O)Nc4c(C)cccc4C)s3)n2)C1 [Example I-3],78,100,100,88,100,97,96,0.8,81,41,98,100,81,100,91,82,100,63,0.5,87,percent of control binding remaining (lower = stronger binding) (broad panel of kinases [21]): 0%; percent of control binding remaining (lower = stronger binding) (broad panel of kinases [22]): 64%; percent of control binding remaining (lower = stronger binding) (broad panel of kinases [23]): 100%; percent of control binding remaining (lower = stronger binding) (broad panel of kinases [24]): 2.9%; percent of control binding remaining (lower = stronger binding) (broad panel of kinases [25]): 50%; percent of control binding remaining (lower = stronger binding) (broad panel of kinases [26]): 98%; percent of control binding remaining (lower = stronger binding) (broad panel of kinases [27]; RSK1(Kin.Dom.1-N-terminal)): 91%; percent of control binding remaining (lower = stronger binding) (broad panel of kinases [27]; RSK1(Kin.Dom.2-C-terminal)): 100%; percent of control binding remaining (lower = stronger binding) (broad panel of kinases [28]): 0.2%; percent of control binding remaining (lower = stronger binding) (broad panel of kinases [29]): 100%; percent of control binding remaining (lower = stronger binding) (broad panel of kinases [30]): 85%; percent of control binding remaining (lower = stronger binding) (broad panel of kinases [31]): 6.8%; percent of control binding remaining (lower = stronger binding) (broad panel of kinases [32]): 25%; percent of control binding remaining (lower = stronger binding) (broad panel of kinases [33]): 100%; percent of control binding remaining (lower = stronger binding) (broad panel of kinases [34]): 78%; percent of control binding remaining (lower = stronger binding) (broad panel of kinases [35]): 66%; % change compared to control (broad panel of kinases [36]): 95%; percent of control binding remaining (lower = stronger binding) (broad panel of kinases [37]): 94%
